# Measurements published in patent US11767341B2, “Lincosamide antibiotics and uses thereof” (President and Fellows of Harvard College, priority 2017, dated 2023).
# Read-outs that look alike come from different tables or passages of the source.
# Assays:
# Test in all cases: MIC determination
# Assay type in all cases: cell-based
# [1] = system: E. coli MMX TolC parent strain; conditions: Escherichia coli
# [2] = system: S. pyogenes UNT-014, MP-625 MacRes; conditions: Streptococcus pyogenes; S. pyogenes UNT-014, MP-625 MacRes; read-out: MIC
# P. aeruginosa ATCC 27853 = conditions: Pseudomonas aeruginosa, ATCC27853
# [3] = system: P. aeruginosa MMX 3476 Δmex; conditions: Pseudomonas aeruginosa
# [4] = system: S. pneumoniae UNT-038, MP-626, TP 160 (mefA); conditions: Streptococcus pneumoniae
# [5] = system: S. aureus MP-513 clinical cErm; conditions: Staphylococcus aureus
# [6] = system: S. pneumoniae UNT-039, MP-627, TP1517 (mefA); conditions: Streptococcus pneumoniae
# [7] = system: S. aureus Micromyx USA 300; conditions: Staphylococcus aureus, USA300; S. aureus Micromyx USA 300; read-out: MIC
# [8] = system: S. pneumoniae TP 1579 (ermB + tet(M, O)); conditions: Streptococcus pneumoniae
# E. coli GUEST131 (NDM-1) = conditions: Escherichia coli
# E. coli MMX 0121 ΔTolC = conditions: Escherichia coli
# [9] = system: E. faecalis MMX 847 Macrolide-Resistant; conditions: Enterococcus faecalis
# [10] = system: P. aeruginosa MMX Mex parent strain; conditions: Pseudomonas aeruginosa
# K. pneumoniae ATCC 10031 = conditions: Klebsiella pneumoniae, ATCC10031; K. pneumoniae ATCC 10031; read-out: MIC
# [11] = system: S. aureus BAA-1556 (USA 300); conditions: Staphylococcus aureus; S. aureus BAA-1556 (USA 300); read-out: MIC
# S. pneumoniae ATCC 49619 = conditions: Streptococcus pneumoniae, ATCC49619; S. pneumoniae ATCC 49619; read-out: MIC
# E. coli ATCC 25922 = conditions: Escherichia coli
# [12] = system: S. aureus UNT-120, MP-619, NRS22 (USA 600, GISA); conditions: Staphylococcus aureus
# E. faecalis UNT-047 VRE = conditions: Enterococcus faecalis
# S. aureus ATCC 29213 = conditions: Staphylococcus aureus, ATCC29213, S. aureus ATCC 29213; read-out: MIC
# E. faecalis ATCC 29212 = conditions: Enterococcus faecalis, ATCC29212, read-out: MIC
# [13] = system: S. pneumoniae TP 1537 (ermB + mefA); conditions: Streptococcus pneumoniae; S. pneumoniae TP 1537 (ermB + mefA); read-out: MIC
# [14] = system: S. aureus UNT-146, MP-620, TP 506 (ermA); conditions: Staphylococcus aureus
# S. pyogenes ATCC 19615 = conditions: Streptococcus pyogenes, ATCC19615; S. pyogenes ATCC 19615; read-out: MIC
# [15] = system: S. aureus UNT96, NRS710, MP-618 (USA 100, Erythro >8); conditions: Staphylococcus aureus
# [16] = system: K. pneumoniae IHMA 658692; KPC-2; conditions: Klebsiella pneumoniae; K. pneumoniae IHMA 658692; KPC-2; read-out: MIC
# H. influenzae ATCC 49247 = conditions: Haemophilus influenzae, ATCC49247; H. influenzae ATCC 49247; read-out: MIC
# [17] = system: S. pneumoniae MMX 3031 cMefA; conditions: Streptococcus pneumoniae, MMX3031CMEFA
# [18] = system: S. pyogenes MMX 946 Macrolide-Resistant; conditions: Streptococcus pyogenes; S. pyogenes MMX 946 Macrolide-Resistant (MacRes); read-out: MIC
# K. pneumoniae UNT TEM-10 = conditions: Klebsiella pneumoniae, UNTTEM10; K. pneumoniae UNT TEM-10; read-out: MIC
# C. difficile BAA 1805 = conditions: Clostridioides difficile, BAA1805; C. difficile BAA 1805; read-out: MIC
# B. fragilis ATCC 25285 = conditions: Bacteroides fragilis, ATCC25285; B. fragilis ATCC 25285; read-out: MIC
# S. aureus MMX 3035 cErmA = conditions: Staphylococcus aureus, MMX3035CERMA; S. aureus MMX 3035 cErmA; read-out: MIC
# [19] = system: S. pneumoniae MMX 3028 cErmB; conditions: Streptococcus pneumoniae, MMX3028CERMB; S. pneumoniae MMX 3028 cErmB; read-out: MIC
# S. aureus BAA 977 iErmA = conditions: Staphylococcus aureus, BAA977
# E. coli MP-9 ΔTolC = conditions: Escherichia coli
# [20] = system: S. aureus MP-549 msr(a) USA 300; conditions: Staphylococcus aureus, USA300, S. aureus MP-549 msr(a) USA 300
# [21] = ATCC25922, E. coli ATCC 25922, read-out: MIC
# [22] = S. aureus UNT-120, MP-619, NRS22 (USA 600, GISA), read-out: MIC
# [23] = E. faecalis UNT-047 VRE, read-out: MIC
# [24] = P. aeruginosa ATCC 27853, read-out: MIC
# [25] = S. aureus UNT-146, MP-620, TP 506 (ermA), read-out: MIC
# [26] = S. aureus UNT96, NRS710, MP-618 (USA 100, Erythro >8), read-out: MIC
SMILES,MIC [2],MIC [4],MIC [6],MIC [8],MIC (E. coli GUEST131 (NDM-1)),MIC (K. pneumoniae ATCC 10031),MIC [11],MIC (S. pneumoniae ATCC 49619),MIC (E. coli ATCC 25922; [21]),"MIC [12, 22]",MIC (E. faecalis UNT-047 VRE; [23]),MIC (P. aeruginosa ATCC 27853; [24]),MIC (S. aureus ATCC 29213),MIC (E. faecalis ATCC 29212),MIC [13],"MIC [14, 25]",MIC (S. pyogenes ATCC 19615),"MIC [15, 26]",MIC [16],MIC (H. influenzae ATCC 49247),also measured
"CCC[C@@H]1C[C@@H](C(=O)N[C@@H]([C@H]2O[C@H](SC)[C@H](O)[C@@H](O)[C@H]2O)[C@H](C)Cl)N(C)C1 [Clindamycin, clindamycin, reference compound]",≤ 0.0313 µg/mL,≤ 0.0313 µg/mL,≤ 0.0313 µg/mL,≤ 0.0313 µg/mL,> 3 µg/mL,,,,,,,,,,,,,,,,MIC [1]: > 64 µg/mL; MIC (P. aeruginosa ATCC 27853): > 64 µg/mL; MIC [3]: > 64 µg/mL; MIC [5]: > 64 µg/mL; MIC [7]: 0.25 µg/mL; MIC (E. coli MMX 0121 ΔTolC): 4 µg/mL; MIC [9]: > 64 µg/mL; MIC [10]: > 64 µg/mL
CSC1O[C@H]([C@H](NC(=O)[C@H]2NC[C@@H]3CCCCO[C@H]32)[C@H](C)Cl)C(O)[C@@H](O)[C@H]1O (stereo partly shown) [FSA-22091],< 0.0313 µg/mL,< 0.0313 µg/mL,< 0.0313 µg/mL,< 0.0313 µg/mL,> 32 µg/mL,8 µg/mL,> 32 µg/mL,< 0.0313 µg/mL,32 µg/mL,> 32 µg/mL,> 32 µg/mL,> 32 µg/mL,0.125 µg/mL,> 32 µg/mL,32 µg/mL,> 32 µg/mL,< 0.0313 µg/mL,> 32 µg/mL,> 32 µg/mL,8 µg/mL,
CSC1O[C@H]([C@H](NC(=O)[C@H]2NC[C@@H]3CC(F)(F)CCO[C@H]32)[C@H](C)Cl)C(O)[C@@H](O)[C@H]1O (stereo partly shown) [FSA-24036],≤ 0.0313 µg/mL,≤ 0.0313 µg/mL,≤ 0.0313 µg/mL,≤ 0.0313 µg/mL,> 32 µg/mL,16 µg/mL,> 32 µg/mL,≤ 0.06 µg/mL,> 64 µg/mL,> 32 µg/mL,> 32 µg/mL,> 64 µg/mL,0.25 µg/mL,4 µg/mL,> 32 µg/mL,> 32 µg/mL,≤ 0.0313 µg/mL,> 32 µg/mL,> 32 µg/mL,4 µg/mL,"MIC ([1]; E. coli MMX TolC parent strain, read-out: MIC): > 64 µg/mL; MIC [17]: ≤ 0.06 µg/mL; MIC [18]: 4 µg/mL; MIC (K. pneumoniae UNT TEM-10): > 32 µg/mL; MIC (C. difficile BAA 1805): 2 µg/mL; MIC [3]: 32 µg/mL; MIC (B. fragilis ATCC 25285): 4 µg/mL; MIC (S. aureus MMX 3035 cErmA): > 64 µg/mL; MIC [7]: 0.12 µg/mL; MIC (E. coli MMX 0121 ΔTolC): 8 µg/mL; MIC [19]: 64 µg/mL; MIC (S. aureus BAA 977 iErmA): 0.5 µg/mL; MIC ([9]; E. faecalis MMX 847 Macrolide-Resistant (MacRes), read-out: MIC): > 64 µg/mL; MIC ([10]; P. aeruginosa MMX Mex parent strain, read-out: MIC): > 64 µg/mL"
CSC1O[C@H]([C@H](NC(=O)[C@H]2NC[C@@H]3C=CCO[C@@H]23)[C@H](C)Cl)C(O)[C@@H](O)[C@H]1O (stereo partly shown) [FSA-24039],0.125 µg/mL,0.125 µg/mL,≤ 0.0313 µg/mL,0.0625 µg/mL,> 32 µg/mL,> 32 µg/mL,> 32 µg/mL,0.0625 µg/mL,> 32 µg/mL,> 32 µg/mL,> 32 µg/mL,> 32 µg/mL,1 µg/mL,32 µg/mL,> 32 µg/mL,> 32 µg/mL,0.125 µg/mL,> 32 µg/mL,> 32 µg/mL,32 µg/mL,
CSC1O[C@H]([C@H](NC(=O)[C@@H]2[C@@H]3OCCCC[C@H]3CN2C)[C@H](C)Cl)C(O)C(O)[C@H]1O (stereo partly shown) [FSA-24040],≤ 0.0313 µg/mL,≤ 0.0313 µg/mL,≤ 0.0313 µg/mL,≤ 0.0313 µg/mL,> 32 µg/mL,8 µg/mL,> 32 µg/mL,≤ 0.0313 µg/mL,> 32 µg/mL,> 32 µg/mL,> 32 µg/mL,> 32 µg/mL,≤ 0.0313 µg/mL,32 µg/mL,> 32 µg/mL,> 32 µg/mL,≤ 0.0313 µg/mL,> 32 µg/mL,> 32 µg/mL,8 µg/mL,
CSC1O[C@H]([C@H](NC(=O)[C@H]2NC[C@@H]3CCCO[C@H]32)[C@H](C)Cl)C(O)[C@@H](O)[C@H]1O (stereo partly shown) [FSA-24041],0.0625 µg/mL,0.0625 µg/mL,≤ 0.0313 µg/mL,≤ 0.0313 µg/mL,> 32 µg/mL,> 32 µg/mL,> 32 µg/mL,0.0625 µg/mL,> 32 µg/mL,> 32 µg/mL,> 32 µg/mL,> 32 µg/mL,0.5 µg/mL,32 µg/mL,> 32 µg/mL,> 32 µg/mL,≤ 0.0313 µg/mL,> 32 µg/mL,> 32 µg/mL,32 µg/mL,
CSC1O[C@H]([C@H](NC(=O)[C@H]2NC[C@@H]3CN(Cc4ccccc4)CCO[C@H]32)[C@H](C)Cl)C(O)[C@@H](O)[C@H]1O (stereo partly shown) [FSA-502002],0.125 µg/mL,0.25 µg/mL,0.125 µg/mL,,,64 µg/mL,,0.25 µg/mL,,,,,2 µg/mL,8 µg/mL,,,0.125 µg/mL,,,,MIC (E. coli MP-9 ΔTolC): > 64 µg/mL; MIC (E. coli ATCC 25922; ATCC25922): > 64 µg/mL; MIC [12]: > 64 µg/mL; MIC (E. faecalis UNT-047 VRE; VRE): > 64 µg/mL; MIC (P. aeruginosa ATCC 27853): > 64 µg/mL; MIC [5]: > 64 µg/mL; MIC [14]: > 64 µg/mL; MIC [15]: > 64 µg/mL; MIC [20]: 2 µg/mL; MIC (S. aureus BAA 977 iErmA): 2 µg/mL
